Measured values reported in patent US20020182207A1, “Methods and compositions for modifying biologically active target molecules” (priority 2000, published 2002).

How the values were obtained:
[1] = Pseudo-first order NaOH hydrolysis rates by UV spectrometry; format: physicochemical; details: 1.0 mM antibiotic, 10.0 mM NaOH, 30.0° C.
Protocol: Further, before choosing either cefoxitin or cefotaxime as the labeling reactant, it was verified that their uncatalyzed reactivity rates were as facile as that of ampicillin. Model reactions were performed comparing the (NaOH) hydrolysis rates of cefoxitin, cefotaxime, and ampicillin. Hydrolysis and acylation are mechanistically identical. Their pseudo-first order hydrolysis rates as measured by UV spectrometry (1.0 mM antibiotic, 10.0 mM NaOH, 30.0° C.) were virtually the same: […]

[2] = tested on: β-lactamase-producing E. coli (TG1 phage antibody E. coli); test: Growth of β-lactamase-producing E. coli on agar plates containing antibiotics; format: cell-based; set-up: E. coli growth score on agar plate: key to the marks not given beside the values; details: for Antibiotic effect on β-lactamase-producing E. coli (in words): at the indicated concentrations of Table 2; for Concentration toxic to β-lactamase-expressing E. coli / Concentration toxic to β-lactamase-expressing E. coli (toxic level): agar plates; for Concentration toxic to β-lactamase-expressing E. coli (toxic level): called IC50 in b119 and b167
Protocol: First, the ability of these candidate cephalosporins to kill the relevant β-lactamase-producing E. coli (TG1 phage antibody E. coli) was tested. […] This is presumably due to β-lactamase-catalyzed inactivation. […] Presumably, neither is inactivated by E. coli β-lactamase. […] More preferably, E. coli should be challenged with approximately 40-45 μM cefoxitin and 0.45-0.50 μM cefotaxime.
Next, the ability of the cephalosporins to kill the relevant β-lactamase-producing E. coli (TG1 phage antibody E. coli) was tested by growing the bacteria on agar plates containing the antibiotics. […] This is presumably due to β-lactamase-catalyzed inactivation. […] Presumably, neither is inactivated by E. coli β-lactamase.
A second experiment was performed in which E. coli was grown on agar plates containing varying amounts of cefotaxime.

TNFα = TNFα (Homo sapiens, UniProt P01375); test: ECL-based assay of TNFα binding to its receptor after incubation with label (sugars, ampicillin)
Chain of TNFα (P01375 77-233 limits assumed): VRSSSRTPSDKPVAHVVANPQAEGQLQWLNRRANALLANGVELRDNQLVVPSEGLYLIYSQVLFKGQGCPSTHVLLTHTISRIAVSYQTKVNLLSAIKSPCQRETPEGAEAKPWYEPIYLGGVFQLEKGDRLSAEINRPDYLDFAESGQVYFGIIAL
Protocol: Experiments were conducted to determine whether catalytic antibodies can chemically modify and thereby inactivate disease-associated proteins. First, the reaction of reducing sugars with the disease-associated protein, tumor necrosis factor alpha (TNFα) was examined. In this reaction, the reducing sugar aldehyde covalently reacts with protein lysine sidechains. Chemical modification was detected using an ECL-based binding assay that measures the binding of TNFα to its receptor (an assay of biological function). […] Thus, chemical modification is a viable approach to inactivate proteins. Experiments were conducted to determine whether catalytic antibodies can inactivate disease-associated proteins. First, the reaction of reducing sugars with the disease-associated protein, tumor necrosis factor alpha (TNFα) was examined. In this reaction, the reducing sugar aldehyde covalently reacts with protein lysine sidechains. Chemical modification was detected using an ECL-based immunoassay that measures the binding of TNFα to its receptor. The assay is a sandwich format that uses antibodies directed against TNF and its receptor. One antibody is labeled with biotin, the other with an ECL label (TAG NHS Ester, IGEN International). When the TNF-TNF receptor complex is present, a sandwich complex comprising both a biotin and an ECL label is formed. This sandwich complex is captured on streptavidin-coated magnetic beads and measured using ECL detection. Alternatively, the TNF receptor may be directly biotinylated and the TNF target molecule labeled directly with the ECL label (or visa versa); in this alternative approach, no antibodies are necessary. […] Thus, chemical modification may be used to inactivate proteins. The uncatalyzed reaction between a β-lactam (ampicillin) and two proteins was also examined. Bovine serum albumin (BSA) and ampicillin were reacted overnight. […] Ampicillin was also reacted with TNFα overnight. […] Thus, this reaction is much more facile than the reaction of TNFα with reducing sugars.

[3] = first column, head printed 10 g/mL
[4] = second column, head printed 10 g/mL

SMILES: CC1(C)S[C@@H]2[C@H](NC(=O)[C@H](N)c3ccccc3)C(=O)N2[C@H]1C(=O)O [Ampicillin]
- Pseudo-first order hydrolysis rate [1]: 0.00564 min⁻¹
- Antibiotic effect on β-lactamase-producing E. coli (in words) [2]: little or no antibiotic effect
- E. coli growth score on agar plate [2, 3]: +++++
- E. coli growth score on agar plate [2, 4]: +++++
- Loss of TNFα biological activity according to the receptor binding assay (TNFα; reacted with TNFα overnight, uncatalyzed): 16%

SMILES: N[C@@H](C(=O)N[C@@H]1C(=O)N2C(C(=O)O)=C(Cl)CS[C@H]12)c1ccccc1 [Cefaclor]
- Antibiotic effect on β-lactamase-producing E. coli (in words) [2]: little or no antibiotic effect
- E. coli growth score on agar plate [2, 3]: +++++

SMILES: CO/N=C(\C(=O)N[C@@H]1C(=O)N2C(C(=O)O)=C(COC(C)=O)CS[C@H]12)c1csc(N)n1 [Cefotaxime]
- Pseudo-first order hydrolysis rate [1]: 0.0041 min⁻¹
- Concentration toxic to β-lactamase-expressing E. coli [2]: ~0.25 µM
- Concentration toxic to β-lactamase-expressing E. coli (toxic level) [2]: ~0.12 µg/mL
- Antibiotic effect on β-lactamase-producing E. coli (in words) [2]: excellent antibiotic effects
- # of E. coli colonies ([2]; cefotaxime concentration 0.04 μg/mL): 225
- # of E. coli colonies ([2]; cefotaxime concentration 0.12 μg/mL): 5
- # of E. coli colonies ([2]; cefotaxime concentration 0.37 μg/mL): 0
- # of E. coli colonies ([2]; cefotaxime concentration 1.11 μg/mL): 0

SMILES: CO[C@@]1(NC(=O)Cc2cccs2)C(=O)N2C(C(=O)O)=C(COC(N)=O)CS[C@@H]21 [Cefoxitin]
- Pseudo-first order hydrolysis rate [1]: 0.00438 min⁻¹
- Concentration toxic to β-lactamase-expressing E. coli [2]: ~22 µM
- Concentration toxic to β-lactamase-expressing E. coli (toxic level) [2]: approximately 10 μg/mL
- Antibiotic effect on β-lactamase-producing E. coli (in words) [2]: excellent antibiotic effects
- Number of E. coli colonies on agar plate [2, 3]: 30 colonies

SMILES: CC(=O)OCC1=C(C(=O)O)N2C(=O)[C@@H](NC(=O)Cc3cccs3)[C@H]2SC1 [Cephalothin]
- Antibiotic effect on β-lactamase-producing E. coli (in words) [2]: little or no antibiotic effect
- E. coli growth score on agar plate [2, 3]: +++++
- E. coli growth score on agar plate [2, 4]: +++++

SMILES: O=C(CO)[C@@H](O)[C@H](O)[C@H](O)CO [Fructose]
- TNFα receptor binding following incubation with sugar (control buffer = 1.00, arbitrary) (TNFα; incubation time: 7 days): 0.79
- TNFα receptor binding following incubation with sugar (control buffer = 1.00, arbitrary) (TNFα; incubation time: 14 days): 0.67
- TNFα receptor binding following incubation with sugar (control buffer = 1.00, arbitrary) (TNFα; incubation time: None): 1.02

SMILES: O=C[C@H](O)[C@@H](O)[C@@H](O)[C@H](O)CO [Galactose]
- TNFα receptor binding following incubation with sugar (control buffer = 1.00, arbitrary) (TNFα; incubation time: 7 days): 0.89
- TNFα receptor binding following incubation with sugar (control buffer = 1.00, arbitrary) (TNFα; incubation time: 14 days): 0.82
- TNFα receptor binding following incubation with sugar (control buffer = 1.00, arbitrary) (TNFα; incubation time: None): 1.00

SMILES: OC[C@H]1O[C@@](CO)(O[C@H]2O[C@H](CO)[C@@H](O)[C@H](O)[C@H]2O)[C@@H](O)[C@@H]1O [sucrose]
- Inactivation of TNFα receptor binding (in words) (TNFα; 2-week incubation period): did not inactivate TNFα
